Reference: US10968214B2, “KRas G12C inhibitors” (Eli Lilly and Company, priority 2018, dated 2021)
Values joined by “and” are separate entries in the source; they are usually repeats but may differ in a detail not shown here. Equal values may be shown once. Read-outs that look alike come from different tables or passages of the source. Values belong to the compound of their own block, whether it stands above or below them.

Tests used:
SW1463 = experiment: Combination 4 day growth assay (Cell TiterGlo), SW1463; assay type: cell-based; conditions: Homo sapiens, single treatment, read-out: Absolute IC50
Description: (§1) Cell lines for this study are obtained from ATCC and grown under ATCC recommended conditions, except for LXFA-983L, which is obtained from Oncotest/Charles Rivers Laboratories, Wilmington, Mass. and D122-96, which is obtained from L. Eisenbach (Weizman Institute of Science, Rehovot, Israel)—both grown under recommended conditions. […] The proliferation assay is performed as a 4 day growth assay using Cell TiterGlo® as the readout. Briefly, cells are plated in 96-well cell culture plates and allowed to adhere overnight at 37° C. The following day, cells are treated with compounds, either single treatments or combination treatments. First, the testing compounds are serially diluted in DMSO, followed by dilution into media as a 5× concentration with 1% DMSO, and finally added to cells in media to dilute to 1×. The cells are incubated at 37° C. for 4 more days. At the end of the incubation period, Cell TiterGlo® reagent is mixed and added to the wells. After 10 minutes, the luminescence is read by a Perkin Elmer Envision instrument. Absolute IC50 values generated by a 4-parameter logistics model for the single and combination treatments are generated, followed by combination indexes for each combination treatment and cell line. The combination IC50 values are adjusted based on the total concentration of each compound when added together. […] The combination index (CI) measures the degree to which the potency of a combination therapy differs from the expected-if-additive potency and is based on the Loewe definition of additivity.
(§2) [formula] Where • CAy and CBy are the concentrations of therapies A and B that produce an effect, y, when given in combination • ICAy and ICBy are the concentrations of A and B that produce an effect, y, when given individually The biological interpretation of the combination index is as follows: synergistic if the combination index <0.5, additive if the combination index is between 0.5 and 2, and antagonistic if the combination index is >2.

D122-96 = experiment: Combination 4 day growth assay (Cell TiterGlo), D122-96; assay type: cell-based; conditions: Mus musculus, 96 h, single treatment, read-out: Absolute IC50
Description: as §1, §2

MiaPaca-2 xenograft = experiment: Anti-tumor growth activity, MiaPaca-2 pancreatic xenograft; assay type: in vivo; conditions: Abemaciclib 50 mg/kg QDx28
MIA Paca-2 = experiment: Combination 4 day growth assay (Cell TiterGlo), MIA Paca-2; assay type: cell-based; conditions: Homo sapiens, single treatment, read-out: Absolute IC50
Description: as §1, §2

H2030 = experiment: Combination 4 day growth assay (Cell TiterGlo), H2030; assay type: cell-based; conditions: Homo sapiens, NCI-H2030, 96 h, single treatment, read-out: Absolute IC50
Description: (§3) Cell lines for this study are obtained from ATCC and grown under ATCC recommended conditions, except for LXFA-983L, which is obtained from Oncotest/Charles Rivers Laboratories, Wilmington, Mass. and D122-96, which is obtained from L. Eisenbach (Weizman Institute of Science, Rehovot, Israel)—both grown under recommended conditions. […] The proliferation assay is performed as a 4 day growth assay using Cell TiterGlo® as the readout. Briefly, cells are plated in 96-well cell culture plates and allowed to adhere overnight at 37° C. The following day, cells are treated with compounds, either single treatments or combination treatments. First, the testing compounds are serially diluted in DMSO, followed by dilution into media as a 5× concentration with 1% DMSO, and finally added to cells in media to dilute to 1×. The cells are incubated at 37° C. for 4 more days. At the end of the incubation period, Cell TiterGlo® reagent is mixed and added to the wells. After 10 minutes, the luminescence is read by a Perkin Elmer Envision instrument. Absolute IC50 values generated by a 4-parameter logistics model for the single and combination treatments are generated, followed by combination indexes for each combination treatment and cell line. The combination IC50 values are adjusted based on the total concentration of each compound when added together. […]

Kyse-410 = experiment: Combination 4 day growth assay (Cell TiterGlo), KYSE-410; assay type: cell-based; conditions: Homo sapiens, single treatment, read-out: Absolute IC50
Description: as §3

LXFA-983L = experiment: Combination 4 day growth assay (Cell TiterGlo), LXFA-983L; assay type: cell-based; conditions: 96 h, single treatment, read-out: Absolute IC50
Description: as §1, §2

H358 = experiment: Combination 4 day growth assay (Cell TiterGlo), H358; assay type: cell-based; conditions: Homo sapiens, NCI-H358, 96 h, single treatment, read-out: Absolute IC50
Description: as §1, §2

SW756 = experiment: Combination 4 day growth assay (Cell TiterGlo), SW756; assay type: cell-based; conditions: Homo sapiens, single treatment, read-out: Absolute IC50
Description: as §3

Calu-1 = experiment: Combination 4 day growth assay (Cell TiterGlo), Calu-1; assay type: cell-based; conditions: Homo sapiens, single treatment, read-out: Absolute IC50
Description: as §1, §2

H2122 xenograft = experiment: Anti-tumor growth activity, lung cancer H2122 xenograft mouse model; assay type: in vivo; conditions: H2122 Lung; Abemaciclib 50 mg/kg QDx28
Description: To evaluate in vivo target inhibition and anti-tumor efficacy of a compound, Human lung cancer cells, H358 or H2122 are implanted into nude mice xenograft tumor models. Either H358 or H2122 cells (10×10^6 in a 1:1 Matrigel® mix, 0.2 mL total volume) are implanted by subcutaneous injection in hind leg of nude female mice (Harlan Laboratories). A total of 5 mice each group are used for efficacy study, and a total of 3-4 mice each group are used for target engagement and PD study. Treatment is initiated with oral administration (gavage) of a test compound or vehicle (20% Captisol®, 25 mM phosphate, pH 2.0 in 0.2 mL volume when the tumor size reaches approximately […]. Tumor growth and body weight are monitored over time to evaluate efficacy and signs of toxicity. Bidimensional measurements of tumors are performed twice a week and tumor volumes are calculated based on mid-axis length and mid-axis width. Tumor volume data are transformed to a log scale to equalize variance across time and treatment groups. The log volume data are analyzed with a two-way repeated measures analysis of variance by time and treatment using the mixed procedures in SAS software (version 8.2). The correlation model for the repeated measures is spatial power. Treated groups are compared to the control group at each time point. The mixed procedure is also used separately for each treatment group to calculate adjusted means and standard errors at each time point. Both analyses account for the autocorrelation within each animal. The adjusted means and standard errors are plotted for each treatment group versus time.
H2122 lung tumor cells (10×10^6) are implanted by subcutaneous injection in hind leg of nude female mice (Taconic Biosciences). A total of 5 mice each group are used for efficacy study.

SW1573 = experiment: Combination 4 day growth assay (Cell TiterGlo), SW1573; assay type: cell-based; conditions: Homo sapiens, 96 h, single treatment, read-out: Absolute IC50
Description: as §1, §2

SW837 = experiment: Combination 4 day growth assay (Cell TiterGlo), SW837; assay type: cell-based; conditions: Homo sapiens, single treatment, read-out: Absolute IC50
Description: as §1, §2

H1373 = experiment: Combination 4 day growth assay (Cell TiterGlo), H1373; assay type: cell-based; conditions: Homo sapiens, NCI-H1373, 96 h, single treatment, read-out: Absolute IC50
Description: as §3

H23 = experiment: Combination 4 day growth assay (Cell TiterGlo), H23; assay type: cell-based; conditions: Homo sapiens, NCI-H23, 96 h, single treatment, read-out: Absolute IC50
Description: as §1, §2

H1792 = experiment: Combination 4 day growth assay (Cell TiterGlo), H1792; assay type: cell-based; conditions: Homo sapiens, NCI-H1792, 96 h, single treatment, read-out: Absolute IC50
Description: as §3

UM-UC-3 = experiment: Combination 4 day growth assay (Cell TiterGlo), UM-UC-3; assay type: cell-based; conditions: Homo sapiens, UMUC3, 96 h, single treatment, read-out: Absolute IC50
Description: as §1, §2

SW837 xenograft = experiment: Anti-tumor growth activity, SW837 colorectal xenograft; assay type: in vivo; conditions: Abemaciclib 50 mg/kg QDx28
H2122 = experiment: Combination 4 day growth assay (Cell TiterGlo), H2122; assay type: cell-based; conditions: Homo sapiens, NCI-H2122, 96 h, single treatment, read-out: Absolute IC50
Description: as §1, §2

SW1463 xenograft = experiment: Anti-tumor growth activity, SW1463 colorectal xenograft; assay type: in vivo; conditions: Abemaciclib 50 mg/kg QDx28
EL3187 (PDX) = experiment: Anti-tumor growth activity, EL3187 lung PDX; assay type: in vivo; conditions: EL3187 Lung PDX; Erlotinib 25 mg/kg QDx28

- IC50 (SW1463; 96 h): 328 nM
- IC50 (MIA Paca-2; 96 h): 755 nM
- IC50 (H2030): 9030 nM
- IC50 (H358): 1230 nM
- IC50 (SW756; 96 h): 4980 nM
- IC50 (Calu-1; 96 h): > 10000 nM
- IC50 (SW1573): 996 nM
- IC50 (SW837; 96 h): 3590 nM
- IC50 (H1373): > 10000 nM
- IC50 (H1792): 1100 nM
- IC50 (H2122): 548 nM
Structure (SMILES): CCN1CCN(Cc2ccc(Nc3ncc(F)c(-c4cc(F)c5nc(C)n(C(C)C)c5c4)n3)nc2)CC1 [Abemaciclib, abemaciclib]
- IC50 (D122-96): 5050 nM
- In Vivo Anti-Tumor Activities (MiaPaca-2 xenograft): 46.88
- IC50 (Kyse-410; 96 h): 3010 nM
- IC50 (LXFA-983L): > 10000 nM
- Tumor Growth Inhibition (%) or Regression (−%) (H2122 xenograft): 79.3 and 79.1
- IC50 (H23): 4970 nM
- IC50 (UM-UC-3): 1720 nM
- In Vivo Anti-Tumor Activities (SW837 xenograft): −2.13
- In Vivo Anti-Tumor Activities (SW1463 xenograft): 55.1

- IC50 (SW1463; SW1463, 96 h): 446 nM
- IC50 (MIA Paca-2; MIA PaCa-2, 96 h): > 10000 nM
- IC50 (H2030): 1480 nM
- IC50 (H358): 247 nM
- IC50 (SW756; SW756, 96 h): > 10000 nM
- IC50 (Calu-1; Calu-1, 96 h): > 10000 nM
- IC50 (SW1573): > 10000 nM
- IC50 (SW837; SW837, 96 h): > 10000 nM
- IC50 (H1373): > 10000 nM
- IC50 (H1792): > 10000 nM
- IC50 (H2122): 352 nM
Structure (SMILES): C#Cc1cccc(Nc2ncnc3cc(OCCOC)c(OCCOC)cc23)c1 [Erlotinib, erlotinib]
- IC50 (D122-96): > 10000 nM
- IC50 (Kyse-410; KYSE-410, 96 h): 469 nM
- IC50 (LXFA-983L; LXFA 983L): 2820 nM
- In Vivo Anti-Tumor Activities (EL3187 (PDX)): 7.8
- IC50 (H23): > 10000 nM
- IC50 (UM-UC-3): > 10000 nM
